From US12065436B2, “Cardiac sarcomere inhibitors” (Cytokinetics, Inc., priority 2018, dated 2024)

Target: bovine cardiac myofibrils (full-length cardiac myosin ATPase in the native sarcomere) (Bos taurus (Bovine), UniProt Q9BE39)
Experiment: Skinned bovine cardiac myofibril ATPase assay (PK/LDH-coupled)
Format: biochemical
Conditions: Ca2+ activating to 75% of maximal rate; for CDMF75 IC15: concentration giving 15% inhibition; for IC50: read-out: CDMF75 IC50
How it was run: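 Inhibition of steady-state ATPase read at 340 nm through a PK/LDH-coupled NADH system (0.5 mM NADH, 1.5 mM PEP). Detergent-skinned bovine cardiac myofibrils, 1 mg/mL, were tested at pH 6.8 in PIPES/MgCl2 with 50 μM ATP and calcium adjusted to give pCa50 or pCa75 activation.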

Chain of bovine cardiac myofibrils (full-length cardiac myosin ATPase in the native sarcomere) (Q9BE39 whole entry): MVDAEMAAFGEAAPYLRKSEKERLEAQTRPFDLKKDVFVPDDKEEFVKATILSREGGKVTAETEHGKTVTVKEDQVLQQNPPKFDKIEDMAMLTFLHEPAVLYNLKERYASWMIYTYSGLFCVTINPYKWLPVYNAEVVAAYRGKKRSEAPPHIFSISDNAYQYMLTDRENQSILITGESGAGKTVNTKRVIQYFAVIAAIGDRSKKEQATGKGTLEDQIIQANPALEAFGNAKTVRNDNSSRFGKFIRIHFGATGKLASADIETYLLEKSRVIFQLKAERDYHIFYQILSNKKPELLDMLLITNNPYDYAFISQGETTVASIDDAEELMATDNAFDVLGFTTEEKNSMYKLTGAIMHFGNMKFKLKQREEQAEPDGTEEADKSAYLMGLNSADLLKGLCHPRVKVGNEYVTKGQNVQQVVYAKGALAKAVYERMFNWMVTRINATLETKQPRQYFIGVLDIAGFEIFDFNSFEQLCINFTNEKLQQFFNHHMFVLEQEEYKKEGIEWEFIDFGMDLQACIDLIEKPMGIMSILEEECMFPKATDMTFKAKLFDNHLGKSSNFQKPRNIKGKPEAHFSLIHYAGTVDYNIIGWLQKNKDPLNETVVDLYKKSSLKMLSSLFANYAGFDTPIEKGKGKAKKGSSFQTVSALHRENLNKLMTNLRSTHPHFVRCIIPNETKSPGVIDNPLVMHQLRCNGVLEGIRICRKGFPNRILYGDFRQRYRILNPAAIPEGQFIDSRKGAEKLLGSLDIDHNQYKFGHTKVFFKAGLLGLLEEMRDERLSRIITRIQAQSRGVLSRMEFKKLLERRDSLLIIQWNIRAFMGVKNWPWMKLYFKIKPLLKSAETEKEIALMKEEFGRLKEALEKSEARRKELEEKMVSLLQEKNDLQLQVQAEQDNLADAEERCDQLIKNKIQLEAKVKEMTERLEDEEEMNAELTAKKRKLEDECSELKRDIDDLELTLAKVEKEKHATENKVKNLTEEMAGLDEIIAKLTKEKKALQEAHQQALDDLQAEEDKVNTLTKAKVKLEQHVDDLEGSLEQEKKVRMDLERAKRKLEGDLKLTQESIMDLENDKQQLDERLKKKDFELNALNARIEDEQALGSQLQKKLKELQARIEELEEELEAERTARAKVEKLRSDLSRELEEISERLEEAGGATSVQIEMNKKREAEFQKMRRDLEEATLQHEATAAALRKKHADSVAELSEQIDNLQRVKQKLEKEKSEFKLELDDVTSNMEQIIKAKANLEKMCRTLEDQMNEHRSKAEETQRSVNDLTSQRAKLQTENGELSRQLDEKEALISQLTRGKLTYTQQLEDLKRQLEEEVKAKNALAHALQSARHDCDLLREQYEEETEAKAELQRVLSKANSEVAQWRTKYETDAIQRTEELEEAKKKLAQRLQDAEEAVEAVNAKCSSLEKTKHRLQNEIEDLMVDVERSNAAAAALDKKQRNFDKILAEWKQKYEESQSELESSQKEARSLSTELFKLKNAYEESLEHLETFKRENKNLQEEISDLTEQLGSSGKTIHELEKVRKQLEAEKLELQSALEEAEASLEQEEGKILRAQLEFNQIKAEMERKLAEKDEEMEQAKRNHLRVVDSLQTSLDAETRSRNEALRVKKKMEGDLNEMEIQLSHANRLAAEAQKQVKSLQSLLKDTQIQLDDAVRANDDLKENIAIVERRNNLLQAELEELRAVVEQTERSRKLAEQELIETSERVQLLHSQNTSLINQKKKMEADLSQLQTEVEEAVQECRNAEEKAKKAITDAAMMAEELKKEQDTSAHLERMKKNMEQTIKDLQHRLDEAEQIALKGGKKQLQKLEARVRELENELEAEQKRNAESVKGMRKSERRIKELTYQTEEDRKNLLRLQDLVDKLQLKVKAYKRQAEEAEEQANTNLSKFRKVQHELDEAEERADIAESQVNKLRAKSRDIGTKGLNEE
Chain of bovine cardiac myofibrils (full-length cardiac myosin ATPase in the native sarcomere) (P85100 whole entry partner): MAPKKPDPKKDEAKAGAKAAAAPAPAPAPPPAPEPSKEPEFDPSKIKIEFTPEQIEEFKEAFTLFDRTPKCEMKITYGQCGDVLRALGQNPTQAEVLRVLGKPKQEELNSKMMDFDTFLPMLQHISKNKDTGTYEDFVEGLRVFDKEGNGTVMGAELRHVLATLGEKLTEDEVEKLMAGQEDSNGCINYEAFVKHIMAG
Chain of bovine cardiac myofibrils (full-length cardiac myosin ATPase in the native sarcomere) (Q3SZE5 whole entry partner): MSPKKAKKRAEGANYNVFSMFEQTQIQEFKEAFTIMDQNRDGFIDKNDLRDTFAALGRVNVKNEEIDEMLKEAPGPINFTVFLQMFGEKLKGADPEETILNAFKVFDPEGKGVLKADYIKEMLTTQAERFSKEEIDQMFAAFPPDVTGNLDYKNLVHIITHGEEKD

Question: What does the source list for `[2H]C([2H])([2H])c1nc(-c2ccc3c(c2)OC[C@H]3NC(=O)c2oc(C)nc2C)no1` [Compound 268, (S)-2,4-dimethyl-N-(6-(5-(methyl-d3)-1,2,4-oxadiazol-3-yl)-2,3-dihydrobenzofuran-3-yl)oxazole-5-carboxamide]?
Answer: CDMF75 IC15: 1.9 µM; IC50: 5.1 µM

Question: With `[2H]C([2H])([2H])c1nc(-c2ccc3c(c2)OC[C@H]3NC(=O)c2cnn(C)c2C)no1` [Compound 269, (S)-1,5-dimethyl-N-(6-(5-(methyl-d3)-1,2,4-oxadiazol-3-yl)-2,3-dihydrobenzofuran-3-yl)-1H-pyrazole-4-carboxamide] as the compound, how does the “CDMF75 IC15” value read?
Answer: 1.1 µM

Question: And the IC50?
Answer: 3.5 µM

Question: What does the source list for `[2H]C([2H])([2H])c1nc(-c2ccc3c(c2)OC[C@H]3NC(=O)c2cn(C)nc2C)no1` [Compound 270, (S)-1,3-dimethyl-N-(6-(5-(methyl-d3)-1,2,4-oxadiazol-3-yl)-2,3-dihydrobenzofuran-3-yl)-1H-pyrazole-4-carboxamide]?
Answer: CDMF75 IC15: 0.9 µM; IC50: 3.1 µM

Question: Which “CDMF75 IC15” value does the source give for `[2H]C([2H])([2H])c1nc(-c2ccc3c(c2)OC[C@H]3NC(=O)c2nnn(C)n2)no1` [Compound 271, (S)-2-methyl-N-(6-(5-(methyl-d3)-1,2,4-oxadiazol-3-yl)-2,3-dihydrobenzofuran-3-yl)-2H-tetrazole-5-carboxamide] here?
Answer: 4.3 µM

Question: What about the IC50 of the same compound?
Answer: 17.1 µM

Question: Which results are given for `[2H]C([2H])([2H])c1noc(-c2ccc3c(c2)CC[C@H]3NC(=O)c2nnn(C)n2)n1` [Compound 272, (R)-2-methyl-N-(5-(3-(methyl-d3)-1,2,4-oxadiazol-5-yl)-2,3-dihydro-1H-inden-1-yl)-2H-tetrazole-5-carboxamide]?
Answer: CDMF75 IC15: 1.2 µM; IC50: 4.3 µM

Question: How did the “CDMF75 IC15” value turn out when `[2H]C([2H])([2H])c1noc(-c2ccc3c(c2)CC[C@H]3NC(=O)c2ccnn2C)n1` [Compound 273, (R)-1-methyl-N-(5-(3-(methyl-d3)-1,2,4-oxadiazol-5-yl)-2,3-dihydro-1H-inden-1-yl)-1H-pyrazole-5-carboxamide] was run?
Answer: 0.7 µM

Question: What about the IC50 of the same compound?
Answer: 2.4 µM

Question: `[2H]C([2H])([2H])c1noc(-c2ccc3c(c2)CC[C@H]3NC(=O)c2cnn(C)c2)n1` [Compound 274, (R)-1-methyl-N-(5-(3-(methyl-d3)-1,2,4-oxadiazol-5-yl)-2,3-dihydro-1H-inden-1-yl)-1H-pyrazole-4-carboxamide] was tested. Which “CDMF75 IC15” value did it give?
Answer: 4.0 µM

Question: And the IC50?
Answer: 15 µM

Question: Which “CDMF75 IC15” value does the source give for `[2H]C([2H])([2H])c1noc(-c2ccc3c(c2)CC[C@H]3NC(=O)c2oncc2C)n1` [Compound 275, (R)-4-methyl-N-(5-(3-(methyl-d3)-1,2,4-oxadiazol-5-yl)-2,3-dihydro-1H-inden-1-yl)isoxazole-5-carboxamide] here?
Answer: 0.8 µM

Question: And the IC50?
Answer: 2.9 µM

Question: `Cn1cc(C(=O)N[C@@H]2CCc3cc(-c4nc(C(F)F)no4)ccc32)cn1` [Compound 276, (R)-N-(5-(3-(difluoromethyl)-1,2,4-oxadiazol-5-yl)-2,3-dihydro-1H-inden-1-yl)-1-methyl-1H-pyrazole-4-carboxamide] was tested. Which “CDMF75 IC15” value did it give?
Answer: 2.6 µM

Question: What about the IC50 of the same compound?
Answer: 10.1 µM

Question: What does the source list for `Cc1c(C(=O)N[C@@H]2CCc3cc(-c4nc(C(F)F)no4)ccc32)cnn1C` [Compound 277, (R)-N-(5-(3-(difluoromethyl)-1,2,4-oxadiazol-5-yl)-2,3-dihydro-1H-inden-1-yl)-1,5-dimethyl-1H-pyrazole-4-carboxamide]?
Answer: CDMF75 IC15: 1.4 µM; IC50: 5.4 µM

Question: `CCOC(=O)N[C@@H]1CCc2cc(-c3noc(C(F)F)n3)ccc21` [Compound 278, ethyl (R)-(5-(5-(difluoromethyl)-1,2,4-oxadiazol-3-yl)-2,3-dihydro-1H-inden-1-yl)carbamate] was tested. Which “CDMF75 IC15” value did it give?
Answer: 1.3 µM

Question: What about the IC50 of the same compound?
Answer: 5.2 µM

Question: What does the source list for `CC(C)OC(=O)N[C@@H]1CCc2cc(-c3noc(C(F)F)n3)ccc21` [Compound 279, isopropyl (R)-(5-(5-(difluoromethyl)-1,2,4-oxadiazol-3-yl)-2,3-dihydro-1H-inden-1-yl)carbamate]?
Answer: CDMF75 IC15: 22.4 µM; IC50: > 39.2 µM

Question: Which results are given for `CC(C)COC(=O)N[C@@H]1CCc2cc(-c3noc(C(F)F)n3)ccc21` [Compound 280, isobutyl (R)-(5-(5-(difluoromethyl)-1,2,4-oxadiazol-3-yl)-2,3-dihydro-1H-inden-1-yl)carbamate]?
Answer: CDMF75 IC15: 0.7 µM; IC50: 2.7 µM

Question: Which results are given for `O=C(N[C@@H]1CCc2cc(-c3noc(C(F)F)n3)ccc21)OC1CCC1` [Compound 281, cyclobutyl (R)-(5-(5-(difluoromethyl)-1,2,4-oxadiazol-3-yl)-2,3-dihydro-1H-inden-1-yl)carbamate]?
Answer: CDMF75 IC15: 0.9 µM; IC50: > 39.2 µM

Question: Which “CDMF75 IC15” value does the source give for `COC(=O)N[C@@H]1CCc2cc(-c3noc(C(F)F)n3)ccc21` [Compound 282, methyl (R)-(5-(5-(difluoromethyl)-1,2,4-oxadiazol-3-yl)-2,3-dihydro-1H-inden-1-yl)carbamate] here?
Answer: 0.5 µM

Question: And the IC50?
Answer: 1.9 µM

Question: Which “CDMF75 IC15” value does the source give for `CCC(=O)N[C@@H]1CCc2cc(-c3noc(C(F)F)n3)ccc21` [Compound 283, (R)-N-(5-(5-(difluoromethyl)-1,2,4-oxadiazol-3-yl)-2,3-dihydro-1H-inden-1-yl)propionamide] here?
Answer: 9.6 µM

Question: And the IC50?
Answer: > 39.2 µM

Question: Which results are given for `CC(C)C(=O)N[C@@H]1CCc2cc(-c3noc(C(F)F)n3)ccc21` [Compound 284, (R)-N-(5-(5-(difluoromethyl)-1,2,4-oxadiazol-3-yl)-2,3-dihydro-1H-inden-1-yl)isobutyramide]?
Answer: CDMF75 IC15: 38.5 µM; IC50: > 39.2 µM

Question: What does the source list for `COCC(=O)N[C@@H]1CCc2cc(-c3noc(C(F)F)n3)ccc21` [Compound 285, (R)-N-(5-(5-(difluoromethyl)-1,2,4-oxadiazol-3-yl)-2,3-dihydro-1H-inden-1-yl)-2-methoxyacetamide]?
Answer: CDMF75 IC15: 9.3 µM; IC50: > 39.2 µM

Question: What does the source list for `CC(=O)N[C@@H]1CCc2cc(-c3noc(C(F)F)n3)ccc21` [Compound 286, (R)-N-(5-(5-(difluoromethyl)-1,2,4-oxadiazol-3-yl)-2,3-dihydro-1H-inden-1-yl)acetamide]?
Answer: CDMF75 IC15: 2.1 µM; IC50: 10.2 µM

Question: What does the source list for `O=C(N[C@@H]1CCc2cc(-c3noc(C(F)F)n3)ccc21)C1CCCC1` [Compound 287, (R)-N-(5-(5-(difluoromethyl)-1,2,4-oxadiazol-3-yl)-2,3-dihydro-1H-inden-1-yl)cyclopentanecarboxamide]?
Answer: CDMF75 IC15: 39.2 µM; IC50: > 39.2 µM

Question: How did the “CDMF75 IC15” value turn out when `O=C(N[C@@H]1CCc2cc(-c3noc(C(F)F)n3)ccc21)C1COC1` [Compound 288, (R)-N-(5-(5-(difluoromethyl)-1,2,4-oxadiazol-3-yl)-2,3-dihydro-1H-inden-1-yl)oxetane-3-carboxamide] was run?
Answer: 10.6 µM

Question: What about the IC50 of the same compound?
Answer: > 39.2 µM

Question: `O=C(NC1CC1)N[C@@H]1CCc2cc(-c3noc(C(F)F)n3)ccc21` [Compound 289, (R)-1-cyclopropyl-3-(5-(5-(difluoromethyl)-1,2,4-oxadiazol-3-yl)-2,3-dihydro-1H-inden-1-yl)urea] was tested. Which “CDMF75 IC15” value did it give?
Answer: 39.2 µM

Question: What about the IC50 of the same compound?
Answer: > 39.2 µM

Question: `CC(C)(O)C(=O)N[C@@H]1CCc2cc(-c3noc(C(F)F)n3)ccc21` [Compound 290, (R)-N-(5-(5-(difluoromethyl)-1,2,4-oxadiazol-3-yl)-2,3-dihydro-1H-inden-1-yl)-2-hydroxy-2-methylpropanamide] was tested. Which “CDMF75 IC15” value did it give?
Answer: 39.2 µM

Question: What about the IC50 of the same compound?
Answer: > 39.2 µM
